Laboratory results from patent publication US20140271767A1, “BIOCOMPATIBLE HYDROGEL POLYMER MATRIX FOR DELIVERY OF CELLS” (Medicus Biosciences LLC, priority 2013, published 2014).

Assay: Drug elution from polymer (UV-Vis)
Type: physicochemical
Conditions: within the first three days; Nolvasan polymer, 2% chlorhexidine dose (50 mg), 2 mL PBS per 1 g polymer, 37° C.
Description: A Thermo Scientific GENESYS 10S UV-Vis spectrophotometer was used to quantify the release of various drugs from several polymers. First, the reference drug or drug solution was dissolved in an appropriate solvent. Typically, phosphate buffered saline (PBS), ethanol or dimethylsulfoxide (DMSO) were used as the solvent. Next, the optimal absorption peak for identifying and quantifying the drug was determined by performing a scan of the drug solution between 200 and 1000 nm. With the absorption peak selected, a reference curve was established by measuring the peak absorbance for various concentrations of the drug. […]
Elution samples were collected daily by decanting the PBS solution from the polymer. The volume of sample collected was recorded. […] The elution sample was analyzed by first diluting the sample in the appropriate solvent using analytical pipettes such that the measured absorbance was in the range determined by the reference curve. The dilution factor was recorded. The drug concentration was calculated from the measured absorbance via the reference curve and the dilution factor. The drug amount was calculated by multiplying the drug concentration with the sample volume. The percent elution for that day was calculated by dividing the drug amount by the total amount of drug administered. […]

## [H]/N=C(\N/C(=N/[H])NCCCCCCNC(=N)NC(=N)Nc1ccc(Cl)cc1)Nc1ccc(Cl)cc1 [chlorhexidine]
  chlorhexidine released from polymer: Almost half
